In US5932556A, “Methods and compositions for regulation of CD28 expression” (priority 1995, dated 1999):

How the values were obtained:
[1] = system: CD28 expression in anti-CD3/PMA-activated human T-cells; experiment: Activation-induced CD28 surface expression, immunofluorescence analysis; type: cell-based; details: for Relative inhibition of expression, CD28: anti-CD3/PMA-activated peripheral human T cells, relative to the activity of 5 μM RT03S (100%); for loss of inhibitory activity relative to RT03S: G to C substitutions within both four G regions
Procedure: (§1) Prior to the addition of human peripheral T-cells or T-cell lymphoma cell lines (0.2-0.3×10^6), duplicate 96-well microtitre plates were pre-coated with purified anti-CD3 monoclonal antibody (mAb) (6.25-200 ng/well) (clone HIT 3a, Pharmingen, San Diego, Calif.) and washed twice with cold phosphate-buffered saline, pH 7.4 (PBS). Anti-CD3 mAb-treated T-cells were further activated by the addition of 2 ng phorbol 12-myristate 13-acetate (PMA) (Calbiochem, La Jolla, Calif.) and incubated for 48 h at 37° C. Anti-CD3/PMA-activated T-cells were treated with 1-20 μM CD28-specific and control oligonucleotides immediately following activation and re-treated 24 h later. T-cells from one duplicate plate was used for immunofluorescence analysis and the supernatants used for cytokine studies and the second plate was used for T-cell proliferation analysis.
Following activation, […] cell supernatant from the first duplicate microplate was transferred to another microplate for analysis of cell-derived cytokine production. The remaining cells were washed twice with isotonic saline solution, pH 7.4 (Becton Dickinson, Mansfield, Mass.) and resuspended in […] isotonic saline solution and split into two samples. One sample aliquot was co-stained with either PE-CD28/FITC-CD4 or PE-CD54/FITC-CD25 mAb and non-specific fluorescence was assessed by staining the second aliquot with PE/FITC-labeled isotype-matched control monoclonal antibody. All fluorescence-labeled monoclonal antibodies were obtained from Becton Dickinson (San Jose, Calif.). Incubations were performed in the dark at 4° C. for 45 min using saturating mAb concentrations. Unincorporated label was removed by washing in PBS prior to the analysis with a FACScan flow cytometer (Becton Dickinson). Antigen density was indirectly determined in gated live cells and expressed as the mean channel of fluorescence (MCF). Surface expression of specific antigens (CD54, CD25) was represented as the mean channel shift (MCS) obtained by subtracting the MCF of FITC- or PE-labeled isotype-matched (IgG1) control mAb-stained cells from the MCF of FITC- or PE-labeled antigen-specific mAb stained cells. Alternatively, surface expression of the CD4^+ -subset of cells stained with CD28 mAb was determined by subtracting the MCF of […]. The viability of control untreated and oligonucleotide-treated cells were determined in each batch of all oligonucleotides in multiple donors by staining with the vital dye, propidium iodide (5 μg/ml final concentration). The percentage of live cells which excluded propidium iodide was determined by flow cytometry and was >90% (range 90-99%) following treatment with all batches of all oligonucleotides at a dose range of 1-20 μM (FIG. 2).
(§2) Peripheral blood mononuclear cells (PBMCs) were isolated from healthy donors by density gradient centrifugation followed by T cell enrichment using Lymphokwik (One Lambda). Contaminating monocytes were removed by adherence to plastic. Purified T cells were >99% CD2^+, <1% HLA-DR^+ and <5% CD25^+. Jurkat E6-1 (CD28^+ /CD4^+) T cells and HUT 78 (CD28^- /CD4^+) T cells and the monocytic cell line, THP were obtained from ATCC. Cells were cultured at a concentration of 0.2-0.3×10^6 /well and activated with plate-immobilized anti-CD3 monoclonal antibody (mAb) (HIT3A 0.25 μg/ml) (Pharmingen) and 2 ng phorbol 12-myristate 13-acetate (PMA) (Calbiochem).
Cells were co-stained with either PE-CD28/FITC-CD4 or PE-CD54/FITC-CD25 mAb or with PE/FITC-labeled isotype-matched controls (Becton Dickinson). Cell surface antigen density (CD28, CD54, CD25) was confirmed by flow cytometry (FACScan, Becton Dickinson). Viability was assessed by propidium iodide (5 μg/ml) exclusion in control untreated and oligo-treated CD4^+ cells from multiple donors and was typically >90% (range 90-99%) following 48 h incubation with 1-10 μM of each batch of all oligonucleotides.

[2] = system: IL-2 production in Jurkat E6-1 cells; experiment: IL-2 production in activated Jurkat cells; type: cell-based, human; details: activated IL-2 production in Jurkat T cells; relative to the activity of 5 μM RT03S (100%)
Procedure: The T-cell lymphoma cell lines, Jurkat E6-1 (CD28+/CD4+) cells (152-TIB) and HUT 78 (CD28-/CD4+) cells (TIB-161) (ATCC, Rockville, Md.) were maintained in RPMI-10 (RPMI-1640 medium containing […] HEPES buffer, pH 7.4, 10% fetal calf serum (FCS) (Hyclone, Logan, Utah), 1% L-glutamine and 1% penicillin/streptomycin).
as §1
Cell-derived human cytokine concentrations were determined in cell supernatants from the first duplicate microplate. Mitogen-induced changes in interleukin-2 (IL-2) levels were determined using a commercially available ELISA kit (R & D systems Quantikine kit, Minneapolis, Minn.) or by bioassay using the IL-2-dependent cell line, CTLL-2 (ATCC, Rockville, Md.). Mitogen-induced changes in interferon-gamma and interleukin-8 (IL-8) levels were determined by ELISA using kits from Endogen (Cambridge, Mass.) and R & D systems (Quantikine kit, Minneapolis, Minn.) respectively. All ELISA results were expressed as pg/ml and the CTLL-2 bioassay as counts per minute representing the IL-2 -dependent cellular incorporation of ^3 H-thymidine (ICN, Costa Mesa, Calif.) by CTLL-2 cells.
as §2
Proliferative responses were assessed by measuring ^3 H-thymidine (1 μCi, ICN) incorporation for the last 16 h of each assay. Cells were harvested onto filters and DNA synthesis was measured following scintillation counting on a Wallac Betaplate counter. Cytokine concentrations in culture supernatants were assayed using ELISA kits for IL-2, IL-8 (R & D Systems) and IFN-γ (Endogen) or by bioassay using the IL-2 -dependent cell line, CTLL-2 (ATCC).

[3] = target: CD3 (T-cell receptor/CD3 complex) on human T cells (human)
[4] = target: CD3 (T-cell receptor/CD3 complex) on human T cells (human); remark: listed apart in the source

Substance | Relative inhibition of expression, CD28 [1] | Relative inhibition of expression, IL-2 [2] | reduction of relative bioactivity ([1]; insertion or deletion of bases separating the sets of G's, range over the named group) | loss of inhibitory activity relative to RT03S ([1]; range over the named group) | surface expression of CD28 (immunofluorescence, MCS) [3] | incorporation of 3H-thymidine (T-cell proliferation) (counts per minute) [4]
RT05S: TTG GAG GGG GAG GAG GGG, SEQ ID NO: 51 (DNA TTGGAGGGGGAGGAGGGG; chemistry not given here) | 136% | 100% |  |  |  | 
RT09S: TTG GAG GGG GAG GTG GGG, SEQ ID NO: 52 (DNA TTGGAGGGGGAGGTGGGG; chemistry not given here) | 126% | 100% |  |  |  | 
RT19S: G GGG TTG GGG, SEQ ID NO: 58 (DNA GGGGTTGGGG; chemistry not given here) | 30% | 89% | 52-70% |  |  | 
RT11S: GGG GAG GAG GGG CTG GAA, SEQ ID NO: 50, sense sequence, upstream region of the CD28 gene (sense GGGGAGGAGGGGCTGGAA; chemistry not given here) | 100% | 100% |  |  |  | 
RT23S: TTG GAGCCG GTG GTG G, SEQ ID NO: 56 (DNA TTGGAGCCGGTGGTGG; chemistry not given here) | 38% | 57% |  | 56-69% |  | 
RT10S: TTG GAG GCG GTG GTG GCG, SEQ ID NO: 53 (DNA TTGGAGGCGGTGGTGGCG; chemistry not given here) | 31% | 38% |  | 56-69% |  | 
anti-CD3 monoclonal antibody (clone HIT 3a, Pharmingen) |  |  |  |  | 150 MCS | 302000
RT06S: TTC CAG CCC CTC CTC CCC, SEQ ID NO: 64 (DNA TTCCAGCCCCTCCTCCCC; chemistry not given here) | 29% | 22% |  |  |  | 
RT18S: GGG GTG GTG GGG, SEQ ID NO: 57, core 12 mer sequence (DNA GGGGTGGTGGGG; chemistry not given here) | 103% | 120% |  |  |  | 
RT24S: TTG GAG CCG GTG GTG GCC, SEQ ID NO: 54 (DNA TTGGAGCCGGTGGTGGCC; chemistry not given here) | 40% | 57% |  | 56-69% |  | 
RT25S: TTG GAG GGG CTC CTC GGG, SEQ ID NO: 55 (DNA TTGGAGGGGCTCCTCGGG; chemistry not given here) | 44% | 25% |  | 56-69% |  | 
